Data taken from patent US10588952B2, “Conjugate vaccine using trimming function of ERAP1” (SUMITOMO DAINIPPON PHARMA CO., LTD., priority 2013, dated 2020).
In brackets after ≈: the same amount, converted by molar mass. Each block holds one compound with its values, some of them ahead of it.

Experiments:
ERAP1 [1] = target: T1, ERAP1 (Homo sapiens, UniProt Q9NZ08); assay: Test of trimming of N-terminal amino acid by ERAP1 (Experimental Example 10, Examples 85-103); format: biochemical; conditions: MAGE-A10 254-262 peptide obtained by ERAP1 trimming; from HPLC AUC
Protocol: The peptides synthesized in Examples 85-103 were evaluated for N-terminal amino acid trimming efficiency using ERAP1. 50 μl of ERAP1 solution (10 μg/ml) in pH 8.0, 20 mM Tris.HCl-100 mM NaCl buffer (Tris.HCl buffer) was added to 142 μl of Tris.HCl buffer. 10 mM peptide solution in DMSO (2.0 μl) and 6.0 μL of DMSO were added to the aforementioned ERAP1 solution, and the mixture was blended well and stood at 30° C. […] The peptide to be obtained by trimming was chemically synthesized separately, and analyzed under similar conditions in the absence of the enzyme. The formation ratio of the peptide [MAGE-A10254-262 peptide ([…]) (SEQ ID NO: 19)] obtained by trimming was determined based on the obtained AUC, and is shown in Tables 45 and 46. […]
(§1) pump: UFLC manufactured by Shimadzu […]
(§2) solution: 0.1% TFA H2O(A)-0.1% TFA CH3CN(B) […]
(§3) detection wavelength: λ=220 nm gradient: concentration of SOLUTION B was raised from 10% to 50% from 0.0 min to 8.5 min

ERAP1 [2] = target: T1, ERAP1; assay: Test of trimming of N-terminal amino acid by ERAP1 (Experimental Example 11, Examples 50, 56, 64, 67); format: biochemical; conditions: Proteinase-3 169-177 peptide obtained by ERAP1 trimming; from HPLC AUC
Protocol: (§4) The peptides synthesized in Examples 50, 56, 64 and 67 were evaluated for N-terminal amino acid trimming efficiency using ERAP1. 50 μl of ERAP1 solution (10 μg/ml) in pH 8.0, 20 mM Tris.HCl-100 mM NaCl buffer (Tris.HCl buffer) was added to 142 μl of Tris.HCl buffer. 10 mM peptide solution in DMSO (2.0 μl) and 6.0 μL of DMSO were added to the aforementioned ERAP1 solution, and the mixture was blended well and stood at 30° C. […] The peptide to be obtained by trimming was chemically synthesized separately, and analyzed under similar conditions in the absence of the enzyme. […]
as §1, §2, §3

ERAP1 [3] = target: T1, ERAP1; assay: Time-course changes of trimming of N-terminal amino acid by ERAP1 (Experimental Example 2); format: biochemical; conditions: peptide obtained by trimming (SEQ ID NO: 53, 43 or 19), ERAP1 solution 0.5 mg/ml, room temperature
Protocol: 20 μl of ERAP1 solution (0.5 mg/ml) in Tris.HCl buffer was added to 172 μl of Tris.HCl buffer. 10 mM peptide solution in DMSO (8.0 μl) was added to the aforementioned ERAP1 solution, and the mixture was blended well and stood at room temperature. […]
pump: UFLC manufactured by Shimadzu column: Shim-pack XR-ODS 3.0 mmi.d.×75 mm solution: 0.05% TFA H2O(A)-0.05% TFA CH3CN(B) […]
detection wavelength: λ=220 nm gradient: Concentration of SOLUTION B was raised from 1.0% 70% from 0.0 min to 5.0 min […]
The peptide to be obtained by the trimming of the N-terminal amino acid(s) by ERAP1 is, […]

ERAP1 [4] = target: T1, ERAP1; assay: Test of trimming of N-terminal amino acid by ERAP1 (Experimental Example 9, Examples 69-84); format: biochemical; conditions: MAGE-A10 254-262 peptide obtained by ERAP1 trimming; from HPLC AUC;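 note: peptide incubated with ERAP1 for 1 h before HPLC analysis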
Protocol: as §4, with “69-84” for “50, 56, 64 and 67”, “peptide” for “peptide to be”
as §1, §2, §3

T1 sequence (Q9NZ08 whole entry): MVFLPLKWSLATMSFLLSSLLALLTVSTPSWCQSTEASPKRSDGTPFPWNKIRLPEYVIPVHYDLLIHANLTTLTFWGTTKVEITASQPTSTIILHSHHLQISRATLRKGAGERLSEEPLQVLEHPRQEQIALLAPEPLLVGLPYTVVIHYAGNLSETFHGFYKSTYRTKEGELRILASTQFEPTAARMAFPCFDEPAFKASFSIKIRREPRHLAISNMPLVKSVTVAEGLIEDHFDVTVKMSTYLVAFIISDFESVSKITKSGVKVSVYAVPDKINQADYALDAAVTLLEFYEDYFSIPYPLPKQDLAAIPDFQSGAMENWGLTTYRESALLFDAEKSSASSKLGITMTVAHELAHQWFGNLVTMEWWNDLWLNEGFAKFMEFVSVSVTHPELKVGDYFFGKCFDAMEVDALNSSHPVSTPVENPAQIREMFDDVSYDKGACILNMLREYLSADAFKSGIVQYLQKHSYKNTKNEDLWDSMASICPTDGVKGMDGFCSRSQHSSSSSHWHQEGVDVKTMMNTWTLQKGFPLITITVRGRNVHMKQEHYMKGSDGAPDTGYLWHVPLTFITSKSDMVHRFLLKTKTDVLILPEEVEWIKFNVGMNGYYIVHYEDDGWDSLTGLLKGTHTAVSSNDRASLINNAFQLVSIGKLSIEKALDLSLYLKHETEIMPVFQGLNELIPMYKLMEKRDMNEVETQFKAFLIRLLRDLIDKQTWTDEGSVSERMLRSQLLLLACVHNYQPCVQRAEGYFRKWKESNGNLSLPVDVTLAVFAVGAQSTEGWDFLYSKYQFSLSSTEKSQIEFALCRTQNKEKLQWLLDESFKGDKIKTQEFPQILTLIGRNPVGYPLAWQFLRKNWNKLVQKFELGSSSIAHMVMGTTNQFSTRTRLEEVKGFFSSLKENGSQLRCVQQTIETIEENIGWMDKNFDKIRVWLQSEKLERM
Protocol for physchem: To prepare a test solution, about 1 mg of a test product was measured and the isotonic buffer (0.5 mL) was added thereto. The prepared solution was shaken at room temperature for 90 min (shaking conditions: RECIPRO SHAKER SR-1N manufactured by TAITEC, Speed=8), centrifuged (15000 rpm, 5 min, room temperature), and the supernatant after centrifugation was used as a test solution.
About 1 mg of the test product was accurately measured, dissolved in 0.1% TFA water/acetonitrile=1/1, made the total amount 10 mL, and this was used as a standard solution of the test product.
The standard solution of the test product and the test solution are analyzed by HPLC (under the analysis conditions described in Table 34), and the solubility of the test product is calculated from the ratio of peak area compared to the standard solution.
column: Chemcopack Quicksorb (4.6 mmφ×150 mm, 5 μm)
manufactured by Chemco Scientific Co., Ltd.
mobile phase: SOLUTION A; 0.1% TFA water, SOLUTION B;
0.1% TFA acetonitrile solution
column temperature: room temperature
detection wavelength: UV 254 nm, 230 nm (2 wavelength detection)
sample injection volume: 10

Compound: CC[C@H](C)[C@H](NC(=O)[C@H](CCCCN)NC(=O)[C@@H](N)CSSC[C@H](N)C(=O)NCC(=O)N[C@@H](CC(C)C)C(=O)N[C@@H](Cc1ccc(O)cc1)C(=O)N[C@@H](CC(=O)O)C(=O)NCC(=O)N[C@@H](CCSC)C(=O)N[C@@H](CCC(=O)O)C(=O)N[C@@H](Cc1c[nH]cn1)C(=O)N[C@@H](CC(C)C)C(=O)O)C(=O)N[C@@H](Cc1ccccc1)C(=O)NCC(=O)N[C@@H](CO)C(=O)N[C@@H](CC(C)C)C(=O)N[C@@H](C)C(=O)N[C@@H](Cc1ccccc1)C(=O)N[C@@H](CC(C)C)C(=O)O [Example 29]
solubility thermodynamic at 90 min (physchem; pH 6): 170 µg/mL (≈ 76.1 µM)
solubility thermodynamic at 90 min (physchem; pH 7.4): > 1000 µg/mL

Compound: CC[C@H](C)[C@H](NC(=O)[C@H](CCCCN)NC(=O)[C@@H](N)CSSC[C@H](N)C(=O)N[C@H](C)C(=O)N[C@@H](CCCCN)C(=O)N[C@@H](Cc1ccccc1)C(=O)N[C@H](C(=O)N[C@@H](C)C(=O)N[C@@H](C)C(=O)N[C@@H](Cc1c[nH]c2ccccc12)C(=O)N[C@H](C(=O)N[C@@H](CC(C)C)C(=O)N[C@@H](CCCCN)C(=O)N[C@@H](C)C(=O)N[C@@H](C)C(=O)N[C@H](C)C(=O)O)[C@@H](C)O)C(C)C)C(=O)N[C@@H](Cc1ccccc1)C(=O)NCC(=O)N[C@@H](CO)C(=O)N[C@@H](CC(C)C)C(=O)N[C@@H](C)C(=O)N[C@@H](Cc1ccccc1)C(=O)N[C@@H](CC(C)C)C(=O)O [Example 112]
solubility thermodynamic at 90 min (physchem; pH 6): < 1 µg/mL
solubility thermodynamic at 90 min (physchem; pH 7.4): 2 µg/mL (≈ 0.785 µM)

Compound: CC[C@H](C)[C@H](NC(=O)[C@H](CCCCN)NC(=O)[C@@H](N)CSSC[C@H](NC(=O)[C@@H](C)NC(=O)[C@H](C)NC(=O)[C@H](C)NC(=O)[C@H](CCCCN)NC(=O)[C@H](CC(C)C)NC(=O)[C@@H](NC(=O)[C@H](Cc1c[nH]c2ccccc12)NC(=O)[C@H](C)NC(=O)[C@H](C)NC(=O)[C@@H](NC(=O)[C@H](Cc1ccccc1)NC(=O)[C@H](CCCCN)NC(=O)[C@@H](C)N)C(C)C)[C@@H](C)O)C(=O)O)C(=O)N[C@@H](Cc1ccccc1)C(=O)NCC(=O)N[C@@H](CO)C(=O)N[C@@H](CC(C)C)C(=O)N[C@@H](C)C(=O)N[C@@H](Cc1ccccc1)C(=O)N[C@@H](CC(C)C)C(=O)O [Example 113]
solubility thermodynamic at 90 min (physchem; pH 6): < 1 µg/mL
solubility thermodynamic at 90 min (physchem; pH 7.4): 2 µg/mL (≈ 0.785 µM)

Compound: H-ACVLQELNVTV-OH [Example 50]
formation rate of VLQELNVTV (SEQ ID NO: 43) (ERAP1 [2]): 1.8%

Compound: H-CAGLYDGMEHL-OH [Example 26]
formation rate(%) 1 hr later (ERAP1 [3]): 87.8%
formation rate(%) 2 hr later (ERAP1 [3]): 99.4%
formation rate(%) 4 hr later (ERAP1 [3]): 103%
formation rate(%) 8 hr later (ERAP1 [3]): 97.5%

Compound: H-CAVLQELNVTV-OH [Example 22]
formation rate(%) 1 hr later (ERAP1 [3]): 46.1%
formation rate(%) 2 hr later (ERAP1 [3]): 49.9%
formation rate(%) 4 hr later (ERAP1 [3]): 51.3%
formation rate(%) 8 hr later (ERAP1 [3]): 53.5%

Compound: H-CEGLYDGMEHL-OH [Example 70]
formation rate of GLYDGMEHL (SEQ ID NO: 19) (ERAP1 [4]): 6.2%

Compound: H-CGGLYDGMEHL-OH [Example 71]
formation rate of GLYDGMEHL (SEQ ID NO: 19) (ERAP1 [4]): 0.0%

Compound: H-CHGLYDGMEHL-OH [Example 72]
formation rate of GLYDGMEHL (SEQ ID NO: 19) (ERAP1 [4]): 0.0%

Compound: H-CIGLYDGMEHL-OH [Example 73]
formation rate of GLYDGMEHL (SEQ ID NO: 19) (ERAP1 [4]): 0.4%

Compound: H-CKGLYDGMEHL-OH [Example 74]
formation rate of GLYDGMEHL (SEQ ID NO: 19) (ERAP1 [4]): 0.0%

Compound: H-CLGLYDGMEHL-OH [Example 27]
formation rate(%) 1 hr later (ERAP1 [3]): 58.3%
formation rate(%) 2 hr later (ERAP1 [3]): 94.9%
formation rate(%) 4 hr later (ERAP1 [3]): 88.4%
formation rate(%) 8 hr later (ERAP1 [3]): 88.3%

Compound: H-CLVLQELNVTV-OH [Example 23]
formation rate(%) 1 hr later (ERAP1 [3]): 31.1%
formation rate(%) 2 hr later (ERAP1 [3]): 36.9%
formation rate(%) 4 hr later (ERAP1 [3]): 38.1%
formation rate(%) 8 hr later (ERAP1 [3]): 36.1%

Compound: H-CMGLYDGMEHL-OH [Example 28]
formation rate(%) 1 hr later (ERAP1 [3]): 90.6%
formation rate(%) 2 hr later (ERAP1 [3]): 103%
formation rate(%) 4 hr later (ERAP1 [3]): 96.0%
formation rate(%) 8 hr later (ERAP1 [3]): 101%

Compound: H-CMVLQELNVTV-OH [Example 24]
formation rate(%) 1 hr later (ERAP1 [3]): 28.7%
formation rate(%) 2 hr later (ERAP1 [3]): 34.5%
formation rate(%) 4 hr later (ERAP1 [3]): 36.5%
formation rate(%) 8 hr later (ERAP1 [3]): 36.8%

Compound: H-CQGLYDGMEHL-OH [Example 69]
formation rate of GLYDGMEHL (SEQ ID NO: 19) (ERAP1 [4]): 56.9%

Other lines, results leading:

solubility thermodynamic at 90 min (physchem; pH 6): 100 µg/mL (≈ 100 µM)
solubility thermodynamic at 90 min (physchem; pH 7.4): 123 µg/mL (≈ 124 µM)
Compound: CC[C@H](C)[C@H](NC(=O)[C@@H](N)CCCCN)C(=O)N[C@@H](Cc1ccccc1)C(=O)NCC(=O)N[C@@H](CO)C(=O)N[C@@H](CC(C)C)C(=O)N[C@@H](C)C(=O)N[C@@H](Cc1ccccc1)C(=O)N[C@@H](CC(C)C)C(=O)O [SEQ ID NO: 53, reference compound]

formation rate of GLYDGMEHL (SEQ ID NO: 19) (ERAP1 [1]): 5.2%
Compound: H-ACGLYDGMEHL-OH [Example 92]

formation rate of GLYDGMEHL (SEQ ID NO: 19) (ERAP1 [4]): 25.0%
Compound: H-CDGLYDGMEHL-OH [Example 83]

formation rate of GLYDGMEHL (SEQ ID NO: 19) (ERAP1 [4]): 0.0%
Compound: H-CFGLYDGMEHL-OH [Example 75]

formation rate of GLYDGMEHL (SEQ ID NO: 19) (ERAP1 [4]): 82.2%
Compound: H-CNGLYDGMEHL-OH [Example 82]

formation rate of GLYDGMEHL (SEQ ID NO: 19) (ERAP1 [4]): 0.0%
Compound: H-CPGLYDGMEHL-OH [Example 76]

formation rate of GLYDGMEHL (SEQ ID NO: 19) (ERAP1 [4]): 0.0%
Compound: H-CRGLYDGMEHL-OH [Example 81]

formation rate of GLYDGMEHL (SEQ ID NO: 19) (ERAP1 [4]): 1.1%
Compound: H-CSGLYDGMEHL-OH [Example 84]
